For test [1], the system named is NMDARs (GluN1a, GluN2a, GluN2b). Nature of the test: Surface expression of NMDARs in HEK293T cells co-transfected with NMDARs and TRPM2 (WB). The class given is cell-based, human. Particulars: 1 μM compound overnight. On the procedure:
FIGS. 4K-4N show the surface expression of NMDARs in HEK-293T cells co-transfected with TRPM2 or EGFP with the treatment of PKC activator PMA (FIG. 4K) and inhibitor Stausporine (FIG. 4L). Membrane (Mem) and cytocol (Cyto) NMDARs were analyzed and averaged from 3 independent experiments with 1 μM PMA treatment (FIG. 4N) or 1 μM Stausporine treatment (FIG. 4L) for overnight. Pan-cadherin and β-tubulin were loading controls for membrane and cytosol protein, respectively (*, p<0.05, **, p<0.01, ***, p<0.001, unpaired t-test, mean±SEM, n=3/group).
FIGS. 5C-5F effects of TAT-EE3 on surface expression of NMDARs. HEK293T cells co-transfected with NMDARs with TRPM2 (+M2) or EGFP vector (Con) were treated with 10 μM TAT-SC (FIG. 5C) or TAT-EE3 (FIG. 5D) overnight. Membrane (Mem) and cytosol (Cyto) proteins of NMDARs in TAT-SC (FIG. 5E) and TAT-EE3 (FIG. 5F) treated groups were assessed by WBs and analyzed in reference to Pan-cadherin or β-tubulin (**, p<0.01, ***, p<0.001, unpaired t-test, mean±SEM). All the results were replicated in at least 3 independent experiments.
Pan-cadherin and β-tubulin were used as loading control for membrane and cytosolic protein extraction.
were ordered from GenScript Biotech, and dissolved in PBS to make a stock concentration at 10 mM. HEK-293T cells or isolated neurons were treated with TAT-SC or TAT-EE3 at a concentration of 10 μM for at least 8 h prior to use. Mice were injected with TAT-SC or TAT-EE3 intraperitoneally (ip) at a dose of 100 nmol/kg.
HEK293T cells were cultured in Dulbecco's Modified Eagle's medium (DMEM) (Thermal Fisher Scientific, 12100-038) supplemented with 10% BGS (HyClone, SH30541.03) and 0.5% penicillin/streptomycin (Thermal Fisher Scientific, 15140-122) at 37° C. and 5% CO2. 8 h prior to transfection, culture medium was replaced with DMEM supplemented only with 2.5% BGS. Cells were transfected when at a confluence about 80-90% using Lipofectamine® 3000 Transfection Kit (Thermal Fisher Scientific, 2232162) based on instruction.
NP-40/Triton lysis buffer ([…], 1% Triton™ X-100, 150 mM NaCl, 1 mM EDTA, 50 mM Tris, pH=8.0) containing proteinase inhibitors and phosphatase inhibitors was used to lyse both cultured cells and frozen brain tissue. Surface protein was extracted using Pierce® Cell Surface Protein Isolation Kit (Thermal Fisher Scientific, 89881) in transfected HEK-293T cells, and using ProteoExtract™ Native Membrane Protein Extraction Kit (Calbiochem, 444810) in brain tissue based on instructions. […] Protein concentration was measured using Pierce™ Rapid Gold BCA Protein Assay Kit.
30-50 μg of total protein was loaded and separated proteins were transferred to Nitrocellulose membranes. […] Band intensity was quantified using ImageJ software and normalized with appropriate loading controls.

In another test the test system is NMDARs. Put plainly: NMDAR currents in cultured cortical neurons of WT and TRPM2-KO mice (whole cell recording). The test is classed as cell-based, mouse. The conditions noted are these: for NMDAR current amplitude in WT neurons: 1 μM compound overnight, 10 μM NMDA, -80 mV, compared with TRPM2-KO neurons. The protocol:
FIGS. 4O and 4P show the effects of stausporine on NMDAR currents recorded from cortical neurons cultured for 14 days. FIG. 4O show representative NMDAR currents elicited at −80 mV by 10 μM NMDA in WT and TRPM2-KO (gM2KO) neurons treated with or without Stausporine at 1 μM for overnight. FIG. 4P show the average current amplitude (ns, p>0.05; **, p<0.01; ANOVA, Bonferroni's test; mean±SEM, n=11, 10, 10, 12 neurons from 2 mice respectively).
FIG. 4S show representative NMDAR currents elicited by NMDA in WT and TRPM2-KO neurons treated with or without endosidin2 at 1 μM for overnight.
FIGS. 5I-5K show the effects of TAT-EE3 on PKC induced changes of NMDAR currents recorded in cortical neurons of WT and TRPM2-KO. Neurons were incubated with 10 μM TAT-SC or TAT-EE3 for overnight before current recording. FIG. 5I show representative NMDAR currents elicited by 10 μM NMDA at −80 mV before and after PMA (1 μM) perfusion for 20 s. TAT-SC or TAT-EE3 10 μM was included in the pipette solution for current recording.
FIGS. 6A and 6B show the effects of TAT-EE3 on NMDAR currents in WT and gM2KO cortical neurons cultured for 14 days. […] TAT-SC or TAT-EE3 10 μM was included in the pipette solution during current recording.
Mice pups at P0 were euthanized based on animal protocol. Whole brain was dissected out immediately and immersed in ice-cold Hank's Balanced Salt Solution (HBSS). Meninges were removed thoroughly, and tissue of different brain areas was taken based on purposes. Brain tissue was cut into small pieces and digested with 0.25% trypsin (Thermal Fisher Scientific, 15090-046) in HBSS at 37° C. for 20 min. Digestion solution was quickly removed, and tissue pellets are washed with Neurobasal® Medium (Thermal Fisher Scientific, 21103-049) for 3 times. Cells were resuspended with appropriate amount of Neurobasal® Medium supplemented with 2% B27® supplement (Thermal Fisher Scientific, 17504-044), 3% horse serum (Thermal Fisher Scientific, 16050114), 0.25% L-glutamine (Thermal Fisher Scientific, 25030-081) and 1% penicillin/streptomycin (Thermal Fisher Scientific, 15140-122). Isolated cells were counted and plated on coverslips pre-coated with poly-L-lysine (Sigma-Aldrich, P4707) at a density about 500×10^3 cells/cm2 for OGD and H2O2 treatment, and 100×10^3 cells/cm2 for current recording. Cytosine arabinoside (Sigma-Aldrich, C1768) was added to maintain a concentration at 1 μM to inhibit the proliferation of non-neuronal cells. 24 h after plating, culture medium was changed to Neurobasal® Medium supplemented with 2% B27® supplement, 0.25% L-glutamine and 1% penicillin/streptomycin. The concentration of Cytosine arabinoside (araC) was increased to 2 μM. Medium was changed every 3 days. OGD and H2O2 treatment was conducted at 7th day of culture, and current recording was conducted at 7th, 10th and 14th day of culture.
Whole cell currents were recorded using an Axopatch 200B amplifier. Data were digitized at 10 or 20 kHz and digitally filtered offline at 1 kHz. Patch electrodes were pulled from borosilicate glass and fire-polished to a resistance of ˜3 MΩ when filled with internal solutions. Series resistance (Rs) was compensated up to 90% to reduce series resistance errors to <5 mV. Cells in which Rs was >10 MΩ were discarded (Du, J., Xie, J., and Yue, L. (2009). Modulation of TRPM2 by acidic pH and the underlying mechanisms for pH sensitivity. J Gen Physiol 134, 471-88).
For heterologous expression, transfected HEK-293 cells were identified by GFP fluorescence. TRPM2 current recording in transfected HEK-293T cells was performed as we previously reported (Du, J., Xie, J., and Yue, L. (2009). Intracellular calcium activates TRPM2 and its alternative spliced isoforms. Proceedings of the National Academy of Sciences 107, 7239-44; Du, J., Xie, J., and Yue, L. (2009). Modulation of TRPM2 by acidic pH and the underlying mechanisms for pH sensitivity. J Gen Physiol 134, 471-88). […]

We go through three compounds from patent US20250235501A1, “Methods and Compositions for Treating or Preventing Neurological Injury or Neurological Disorders” (University of Connecticut, priority 2024, published 2025).

Molecules are shown by their SMILES.

Consider `CN[C@@H]1C[C@H]2O[C@@](C)([C@@H]1OC)n1c3ccccc3c3c4c(c5c6ccccc6n2c5c31)C(=O)NC4` [stausporine, reference compound], for which the “surface expression level of NMDARs in cells transfected with NMDARs and TRPM2” value (“surface expression level of NMDARs” for short) in test [1] was “abolished the enhanced surface expression level”. For the same compound, the “NMDAR current amplitude in WT neurons” value with NMDARs is reported as “normalized NMDAR current amplitude in the WT neuron to the similar amplitude level of NMDAR current in TRPM2-KO neurons”.
Consider `COc1cc(/C=N/NC(=O)c2cccc(F)c2)cc(I)c1O` [Endosidin 2, reference compound], for which the “surface expression level of NMDARs” value in test [1] was “prevented the increase”. Also, the “NMDAR current amplitude in WT neurons” value in the test on NMDARs was “abolished the increased current amplitude”.
As for `CCCCCCCCCCCCCC(=O)O[C@@H]1[C@@H](C)[C@@]2(O)[C@@H](C=C(CO)C[C@]3(O)C(=O)C(C)=C[C@@H]23)[C@@H]2C(C)(C)[C@]12OC(C)=O` [PMA, Phorbol-12-myristate-13-acetate, reference compound], in test [1], the “surface expression level of NMDARs” value is reported as “much higher level of surface NMDARs”. Moreover, the “increase of NMDA-induced current by PMA” value in the test with NMDARs (WT neurons, PMA 1 μM perfusion for 20 s) is listed as “about 1.5 fold”. The “NMDA-induced current after PMA perfusion” value with NMDARs (WT neurons, PMA 1 μM perfusion for 20 s, before PMA 1542.1±117.1 pA) was found to be 3642.1±180.8 pA.
